{
  "source": "patent US5470852A",
  "about": "“Tetrahydroprotoberberine quaternary ammonium compounds useful in for treating arrhythmia” (priority 1991, dated 1995)",
  "key": {"dogs": {"test_system": "dogs", "assay": "Ouabain-induced arrhythmia in dogs", "assay_type": "in vivo, dog", "details": "for Incidence of arrhythmia: I13 iv 3 mg/kg, lidocaine iv 12 mg/kg", "method": "(iv, 12 mg/kg) on ouabain induced arrhythmia in dogs\n(Ouabain administration for 30 min)"}, "[1]": {"test_system": "Langendorff's perfused rat hearts", "assay": "Lasting antiarrhythmic action after po administration, hearts removed and mounted on Langendorff's apparatus", "assay_type": "in vivo", "set-up": "ke: unit not given beside the values", "experimental": "1, 3 and 6 hours after the administration of 100 mg/kg of I13 by p.o. to rats, the hearts were removed and mounted onto Langendorff's apparatus. […] (see FIG. 4)\nFIG. 4. Influence of po I13 and mexiletine on the time course of reperfusion-induced arrhythmias in Langendorff's perfused rat hearts"}, "[2]": {"test_system": "normal papillary muscles of guinea pig", "assay": "Action potential of normal papillary muscles of guinea pig", "assay_type": "cell-based", "details": "for APA (action potential amplitude) / APD20 / APD50 / APD90 / ERP (effective refractory period) / RP (resting potential) / Vmax: n=7", "source_text": "Effect of I13 on estimates of action potential of normal papillary"}, "[3]": {"test_system": "guinea pig papillary muscles", "assay": "Action potential of guinea pig papillary muscles under anoxia, high K+ and acidosis", "assay_type": "cell-based", "source_text": "Effect of I13 (μ mol/L) on estimates of action potential of guinea\npapillary muscles under anoxia, high K^+ and acidosis"}, "[4]": {"test_system": "various experimental arrhythmic models", "assay": "Overall antiarrhythmic, anti-VF and anti-ischemic activity (summary)", "assay_type": "in vivo"}, "anaesthetized rats": {"test_system": "anaesthetized rats", "assay": "animal or person", "details": "Rattus norvegicus"}, "[5]": {"details": "anoxia, high K+ and acidosis, I13 concentration not given"}},
  "note": "Like-named read-outs stand apart in the source and are kept apart here.",
  "data": [
    {"compound": "COc1ccc2c(c1OC)C[N+]1(Cc3ccc(Cl)cc3)CCc3cc4c(cc3C1C2)OCO4", "note": "(centres unmarked) [Compound I13, 7-(4-chlorobenzyl)-5,8,13,13a-tetrahydroberberine chloride]", "values": [
      {"measurement": "Incidence of arrhythmia", "setting": "dogs; 0 min (before administration)", "value": "97 ± 5", "unit": "%"},
      {"measurement": "Incidence of arrhythmia", "setting": "dogs; 5 min", "value": "83 ± 22", "unit": "%"},
      {"measurement": "Incidence of arrhythmia", "setting": "dogs; 10 min", "value": "72 ± 31", "unit": "%"},
      {"measurement": "Incidence of arrhythmia", "setting": "dogs; 15 min", "value": "59 ± 36", "unit": "%"},
      {"measurement": "Incidence of arrhythmia", "setting": "dogs; 20 min", "value": "45 ± 43", "unit": "%"},
      {"measurement": "Incidence of arrhythmia", "setting": "dogs; 25 min", "value": "40 ± 38", "unit": "%"},
      {"measurement": "Incidence of arrhythmia", "setting": "dogs; 30 min", "value": "27 ± 34", "unit": "%"},
      {"measurement": "Incidence of arrhythmia", "setting": "dogs; 35 min", "value": "26 ± 34", "unit": "%"},
      {"measurement": "Incidence of arrhythmia", "setting": "dogs; 40 min", "value": "14 ± 33", "unit": "%"},
      {"measurement": "Incidence of arrhythmia", "setting": "dogs; 45 min", "value": "12 ± 31", "unit": "%"},
      {"measurement": "Incidence of arrhythmia", "setting": "dogs; 50 min", "value": "11 ± 28", "unit": "%"},
      {"measurement": "Incidence of arrhythmia", "setting": "dogs; 60 min", "value": "8 ± 20", "unit": "%"},
      {"measurement": "inhibition of ouabain-induced arrhythmias", "setting": "dogs; dogs", "value": "markedly inhibited"},
      {"measurement": "antiarrhythmic effect compared with lidocaine", "setting": "dogs; i.v. gtt. 0.1 mg/kg/min for 30 mins vs lidocaine 0.4 mg/kg/min", "value": "the same antiarrhythmic effect as lidocaine"},
      {"measurement": "anti-arrhythmic activity relative to lidocaine", "setting": "dogs; ouabain, dogs", "value": 4, "unit": "times"},
      {"measurement": "reoccurrence of arrhythmia", "setting": "dogs; within 4 hour period", "value": "lack of reoccurrence of arrhythmia within a 4 hour period"},
      {"measurement": "ke", "setting": "[1]; 30 mg/kg po at 1 hr before experiment (FIG. 4)", "value": 0.144},
      {"measurement": "ke", "setting": "[1]; 100 mg/kg po at 1 hr before experiment (FIG. 4)", "value": 0.556},
      {"measurement": "ke", "setting": "[1]; 100 mg/kg po at 3 hr before experiment (FIG. 4)", "value": 0.056},
      {"measurement": "ke", "setting": "[1]; 100 mg/kg po at 6 hr before experiment (FIG. 4)", "value": 0.037},
      {"measurement": "antiarrhythmic effects after washing isolated hearts", "setting": "[1]; 1, 3 and 6 hours after p.o. 100 mg/kg, 30 min washing", "value": "persisted even after 30 minutes of washing"},
      {"measurement": "influence on APA", "setting": "[2]", "value": "no influence"},
      {"measurement": "influence on RP", "setting": "[2]", "value": "no influence"},
      {"measurement": "influence on APD50 (printed ADP50)", "setting": "[2]; 0.3 μmol/L", "value": "able to lengthen ADP50"},
      {"measurement": "APA (action potential amplitude)", "setting": "[2]; 0.3 μmol/L", "value": "125 ± 3", "unit": "mv"},
      {"measurement": "APD20", "setting": "[2]; 0.3 μmol/L", "value": "88 ± 13", "unit": "ms"},
      {"measurement": "APD50", "setting": "[2]; 0.3 μmol/L", "value": "176 ± 29", "unit": "ms"},
      {"measurement": "APD90", "setting": "[2]; 0.3 μmol/L", "value": "201 ± 30", "unit": "ms"},
      {"measurement": "ERP (effective refractory period)", "setting": "[2]; 0.3 μmol/L", "value": "201 ± 28", "unit": "ms"},
      {"measurement": "RP (resting potential)", "setting": "[2]; 0.3 μmol/L", "value": "91 ± 1", "unit": "mv"},
      {"measurement": "Vmax", "setting": "[2]; 0.3 μmol/L", "value": "260 ± 60", "unit": "v/s"},
      {"measurement": "APA (action potential amplitude)", "setting": "[2]; 1 μmol/L", "value": "123 ± 3", "unit": "mv"},
      {"measurement": "APD20", "setting": "[2]; 1 μmol/L", "value": "86 ± 10", "unit": "ms"},
      {"measurement": "APD50", "setting": "[2]; 1 μmol/L", "value": "181 ± 27", "unit": "ms"},
      {"measurement": "APD90", "setting": "[2]; 1 μmol/L", "value": "208 ± 29", "unit": "ms"},
      {"measurement": "ERP (effective refractory period)", "setting": "[2]; 1 μmol/L", "value": "207 ± 27", "unit": "ms"},
      {"measurement": "RP (resting potential)", "setting": "[2]; 1 μmol/L", "value": "90 ± 1", "unit": "mv"},
      {"measurement": "Vmax", "setting": "[2]; 1 μmol/L", "value": "250 ± 70", "unit": "v/s"},
      {"measurement": "APA (action potential amplitude)", "setting": "[2]; 3 μmol/L", "value": "123 ± 3", "unit": "mv"},
      {"measurement": "APD20", "setting": "[2]; 3 μmol/L", "value": "84 ± 8", "unit": "ms"},
      {"measurement": "APD50", "setting": "[2]; 3 μmol/L", "value": "182 ± 23", "unit": "ms"},
      {"measurement": "APD90", "setting": "[2]; 3 μmol/L", "value": "211 ± 26", "unit": "ms"},
      {"measurement": "ERP (effective refractory period)", "setting": "[2]; 3 μmol/L", "value": "213 ± 18", "unit": "ms"},
      {"measurement": "RP (resting potential)", "setting": "[2]; 3 μmol/L", "value": "89 ± 3", "unit": "mv"},
      {"measurement": "Vmax", "setting": "[2]; 3 μmol/L", "value": "217 ± 60", "unit": "v/s"},
      {"measurement": "APA (action potential amplitude)", "setting": "[2]; 10 μmol/L", "value": "122 ± 3", "unit": "mv"},
      {"measurement": "APD20", "setting": "[2]; 10 μmol/L", "value": "80 ± 5", "unit": "ms"},
      {"measurement": "APD50", "setting": "[2]; 10 μmol/L", "value": "161 ± 28", "unit": "ms"},
      {"measurement": "APD90", "setting": "[2]; 10 μmol/L", "value": "206 ± 26", "unit": "ms"},
      {"measurement": "ERP (effective refractory period)", "setting": "[2]; 10 μmol/L", "value": "211 ± 23", "unit": "ms"},
      {"measurement": "RP (resting potential)", "setting": "[2]; 10 μmol/L", "value": "89 ± 1", "unit": "mv"},
      {"measurement": "Vmax", "setting": "[2]; 10 μmol/L", "value": "180 ± 60", "unit": "v/s"},
      {"measurement": "APA (action potential amplitude)", "setting": "[2]; 30 μmol/L", "value": "116 ± 5", "unit": "mv"},
      {"measurement": "APD20", "setting": "[2]; 30 μmol/L", "value": "58 ± 11", "unit": "ms"},
      {"measurement": "APD50", "setting": "[2]; 30 μmol/L", "value": "128 ± 19", "unit": "ms"},
      {"measurement": "APD90", "setting": "[2]; 30 μmol/L", "value": "158 ± 22", "unit": "ms"},
      {"measurement": "ERP (effective refractory period)", "setting": "[2]; 30 μmol/L", "value": "166 ± 24", "unit": "ms"},
      {"measurement": "RP (resting potential)", "setting": "[2]; 30 μmol/L", "value": "87 ± 3", "unit": "mv"},
      {"measurement": "Vmax", "setting": "[2]; 30 μmol/L", "value": "140 ± 50", "unit": "v/s"},
      {"measurement": "influence on APD50 and APD90 (printed ADP50, ADP90)", "setting": "[2]; 1 to 3 μmol/L", "value": "prolonged"},
      {"measurement": "inhibition at 3 µM", "setting": "[2]; Cavia porcellus, 3 μmol/L, isolated papillary muscles of guinea pigs, read-out: inhibition of Vmax", "value": 20, "unit": "%"},
      {"measurement": "antiarrhythmic class properties", "setting": "[2]; electrophysiological studies", "value": "properties of Ia, Ib and III"},
      {"measurement": "two-phase effect on APD", "setting": "[2]; low vs high concentrations", "value": "lengthened at low concentrations and shortened at high concentrations"},
      {"measurement": "Vmax under anoxia, high K+ and acidosis", "setting": "[3]", "value": "lowered"},
      {"measurement": "RP", "setting": "[3]; anoxia, high K+ and acidosis, I13 (μmol/L, concentration not given), n=8", "value": "85 ± 2", "unit": "mv"},
      {"measurement": "APA", "setting": "[3]; [5]", "value": "116 ± 2", "unit": "mv"},
      {"measurement": "APD20", "setting": "[3]; [5]", "value": "78 ± 13", "unit": "ms"},
      {"measurement": "APD50", "setting": "[3]; [5]", "value": "156 ± 20", "unit": "ms"},
      {"measurement": "APD90", "setting": "[3]; [5]", "value": "170 ± 21", "unit": "ms"},
      {"measurement": "ERP", "setting": "[3]; [5]", "value": "186 ± 19", "unit": "ms"},
      {"measurement": "Vmax", "setting": "[3]; [5]", "value": "190 ± 40", "unit": "v/s"},
      {"measurement": "inhibition of ventricular fibrillation and myocardial ischemia", "setting": "[4]; in vivo", "value": "inhibits ventricular fibrillation and myocardial ischemia"},
      {"measurement": "protection against arrhythmia, VF and myocardial ischemic injury", "setting": "[4]; in vivo", "value": "advanced protection against arrhythmia, ventricular fibrillation (VF) and myocardial ischemic injury"},
      {"measurement": "antiarrhythmic effects", "setting": "[4]; various experimental arrhythmic models", "value": "marked antiarrhythmic effects"},
      {"measurement": "ED50", "setting": "anaesthetized rats; iv", "value": 0.16, "unit": "mg/kg"},
      {"measurement": "ED50", "setting": "anaesthetized rats; iv, read-out: ED50 against VF", "value": 0.16, "unit": "mg/kg"},
      {"measurement": "ED50", "setting": "anaesthetized rats; iv, read-out: ED50 against arrhythmias", "value": 0.22, "unit": "mg/kg"},
      {"measurement": "ED50", "setting": "anaesthetized rats; po", "value": 16.5, "unit": "mg/kg"},
      {"measurement": "ED50", "setting": "anaesthetized rats; po, read-out: ED50 against VF", "value": 20, "unit": "mg/kg"},
      {"measurement": "ED50", "setting": "anaesthetized rats; po, read-out: ED50 against arrhythmias", "value": 16.5, "unit": "mg/kg"}
    ]}
  ]
}
